Test results: US20250032425A1, “FIRST IN CLASS USE OF ESTROGEN RECEPTOR BETA AGONISTS IN TREATING ANGELMAN SYNDROME AND RELEVANT AUTISM SPECTRUM DISORDERS” (BROWN UNIVERSITY, priority 2023, published 2025)
Entries after “also recorded” stand apart in the source; their conditions may differ.

Assays:
[1] = tested on: Angelman syndrome (AS) mice; assay: Accelerating Rotarod test in AS mice; format: in vivo, mouse; settings: 10 mg/kg daily IP, days 1-3, vs AS vehicle
Protocol: (§1) Animal handling and experimental use strictly followed NIH guidelines and protocols approved by the local Institutional Animal Care and Use Committee (IACUC) of Brown University. In all experiments, Mice were age and gender-matched. Multiple liters were used for all experiments. Weaned mice, housed in groups of two to four per cage, were maintained on a 12-h light/dark cycle with food and water ad libitum.
(§2) ESRβ agonist AC-186 treatment in vivo. 10 mg/kg AC-186 was daily IP delivered after dissolved at high concentration (30 mg/ml) in DMSO and further diluted in 20% PEG300. Vehicle groups received the same volume and concentration of diluted DMSO in 20% PEG300. Treatment started at P13 and continued until mice were sacrificed at P42.
This involved conducting two trials per day for three consecutive days, with a 20-minute rest interval between trials. During each trial, mice were placed on a rod that accelerated from 4 to 40 RPM over a five-minute period, and the time until each mouse fell was recorded. The average duration before falling was tracked and graphed across the three-day span.

[2] = tested on: UBE3A-deficient iOPCs and iOLs; assay: Oligodendrocyte differentiation of UBE3A-deficient iOPCs into iOLs (immunoblotting of Ki67, MAG, CNPase); format: cell-based, human; settings: AC-186 (10 µM)
Protocol: FIG. 25C: Immunoblotting was conducted to assess the impact of UBE3A depletion on ESR-β expression during oligodendrocyte differentiation. Protein levels of ESR-β in UBE3A-deficient iOPCs and subsequently differentiated iOLs were quantified, normalized against the loading control GAPDH, and expressed relative to the iOPC+siNC control condition (set at 1.0). […] Levels of Ki67 and Myelin Associated Glycoprotein (MAG) were measured in UBE3A-deficient iOPCs and iOLs differentiated from them, normalized against GAPDH, and compared to the iOPC+siNC condition. n=4 experiments. FIG. 25E: Immunoblotting to examine the role of UBE3A for OPC self-renewal and oligodendrocyte differentiation across different developmental stages. Expression of maturation and myelination markers (MBP, MAG, PLP1, CNPase) was quantified following UBE3A depletion timed from iOPCs to pre-iOLs, normalized against TUBB1. and compared to the iOPC+siNC control condition (set at 1.0). n=4 experiments.

[3] = tested on: Angelman syndrome (AS) mice; assay: Fear conditioning test in AS mice; format: in vivo, mouse
Protocol: as §1, §2
For evaluating hippocampus-dependent memory, the protocol described in Lau and Yang, et al., 2023 for the fear conditioning test was followed. Mice were placed in an electrified and sound-attenuated chamber (Coulbourn Instruments, Allentown, PA) which was exposed to a scent (0.1% coconut) diluted in ethanol (70%) on day 1. Mice were habituated to the chamber for 3 min before undergoing three conditioning trials: a tone (5 kHz, 70 dB, 30 s) co-terminating with a foot shock (0.7 mA, 1 s). Conditioning trials were separated by a 30-second interval. Following conditioning, mice rested inside the chamber for 1.5 min before returning to their home cage. […]

[4] = tested on: rat primary OPCs deficient in UBE3A; assay: Ki67 immunoblotting in primary rat OPCs with Ube3A siRNA knockdown; format: cell-based; settings: siUBE3A; 10 μM over 24 hours; vs siUBE3A alone
Protocol: OPC purification followed our protocol previously described in Mei et al., 2016 (Identification of the Kappa-Opioid Receptor as a Therapeutic Target for Oligodendrocyte Remyelination. J Neurosci 36, 7925-7935), isolating cells from day 7 postnatal rat cortical hemispheres. The process began with mechanical dissection and papain digestion at 37° C. for 75 minutes, with occasional shaking. After trituration, cells were processed through immunopanning with 0.2% BSA, involving 30 minutes of negative and 45 minutes of positive selection. Selection plates were pre-treated with secondary antibodies and incubated with primary antibodies Ran-2, Gal-C (for negative) and O4 (for positive selection). Trypsin dissociated OPCs from the selection dish, and the reaction was stopped with 30% FBS, achieving >95% purity. OPCs were then plated on poly-1-lysine-coated coverslips in a nutrient-rich medium and incubated at 37° C. and 5% CO2 overnight. Post PDGF-AA removal, OPCs received either compound or control treatments for 2 days, with vehicle controls adjusted to match treatment concentrations.
The siRNAs targeting UBE3A (Thermo Fisher, #4390815 and #4390816), estrogen receptors (Thermo Scientific #145909 for ESRβ, #145539 for ESRα, and #4390824 for GPER), and negative control (Thermo Scientific, #AM4615) were obtained commercially. […]

[5] = tested on: AS iOPCs differentiated into iOLs; assay: Differentiation of AS patient-derived iOPCs into iOLs (MAG, CNPase, MBP); format: cell-based, human; settings: AC-186 10 μM or clemastine 2.5 μM, 72 hours

Q: For Oc1ccc(C2(c3ccccc3F)CCC(F)(F)CC2)cc1 [AC-186], which “Rotarod time to fall” value [1] is on record?
A: Its value is “significant improvements; also recorded: increased”.

Q: What about the “oligodendrocyte differentiation (MAG, CNPase) with treatment at various stages, FIG. 26C” value ([2]; iOPC to pre-iOL to iOL stages) of the same compound?
A: The value was “beneficial effects on differentiation were observed when administered during the iOPC stage”.

Q: And the “oligodendrocyte differentiation (MAG), FIG. 25D” value ([2]; UBE3A-deficient iOLs, clemastine (2.5 μM), 3 days)?
A: Its value is “no impact on differentiation”.

Q: What about the “Contextual fear conditioning, percentage of time spent freezing” value ([3]; AS mice, 10 mg/kg daily IP, vs AS vehicle, 10 mg/kg) of the same compound?
A: The value was “ameliorated; also recorded: increased”.

Q: What about the cued fear conditioning ([3]; all four groups) of the same compound?
A: Its cued fear conditioning is “no intergroup differences”.

Q: And the “OPC proliferation (Ki67 expression)” value [4]?
A: The value was “rescues impaired proliferation; also recorded: rescued; also recorded: reversed; also recorded: rescue of OPC proliferation; also recorded: increased Ki67 expression”.

Q: What about the “oligodendrocyte differentiation (MAG, CNPase, MBP)” value [5] of the same compound?
A: The value was “no impact on oligodendrocyte differentiation”.
